Reference: PubChem BioAssay (NCI)
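In this assay, cells in 96-well plates receive the compound at five concentrations for 48 hours. Endpoints are linearly interpolated between the surrounding concentrations. Here, GI50 denotes the concentration required for 50% inhibition of growth. TGI is the concentration that stops growth completely.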

Tests used:
Experiment in all cases: NCI-60 cell line screen, 48 h
HCC-2998 colon = system: HCC-2998 colon
HOP-62 NSCLC = system: HOP-62 NSCLC
MALME-3M melanoma = system: MALME-3M melanoma
NCI-H23 lung = system: NCI-H23 lung
NCI-H522 lung = system: NCI-H522 lung
SF-539 CNS = system: SF-539 CNS
SK-MEL-28 melanoma = system: SK-MEL-28 melanoma
SK-OV-3 ovarian = system: SK-OV-3 ovarian
UACC-62 melanoma = system: UACC-62 melanoma
LOX IMVI melanoma = system: LOX IMVI melanoma

| Compound | GI50 (HCC-2998 colon) | TGI (HCC-2998 colon) | GI50 (HOP-62 NSCLC) | TGI (HOP-62 NSCLC) | GI50 (MALME-3M melanoma) | TGI (MALME-3M melanoma) | GI50 (NCI-H23 lung) | TGI (NCI-H23 lung) | GI50 (NCI-H522 lung) | TGI (NCI-H522 lung) | GI50 (SF-539 CNS) | TGI (SF-539 CNS) | GI50 (SK-MEL-28 melanoma) | TGI (SK-MEL-28 melanoma) | GI50 (SK-OV-3 ovarian) | TGI (SK-OV-3 ovarian) | GI50 (UACC-62 melanoma) | TGI (UACC-62 melanoma) | TGI (LOX IMVI melanoma) | GI50 (LOX IMVI melanoma) |
| --- | --- | --- | --- | --- | --- | --- | --- | --- | --- | --- | --- | --- | --- | --- | --- | --- | --- | --- | --- | --- |
| COc1cc(C2CC(c3ccc(C)cc3)=NN2C(C)=O)ccc1Oc1ccnc2cc(Cl)ccc12 (stereo not given) | > 100 µM | > 100 µM | 4.3 µM | > 100 µM | > 100 µM | > 100 µM | 2.71 µM | > 100 µM | > 100 µM | > 100 µM | 11.7 µM | > 100 µM | > 100 µM | > 100 µM | 32.4 µM | > 100 µM | > 100 µM | > 100 µM | – | – |
| CC(CC(C)[C@H]1CCC2[C@H]3C(CC[C@@]21C)[C@@]1(C)CCC(O)C[C@H]1C[C@@H]3O)C(=O)O (stereo not given in full) | – | > 100 µM | – | > 100 µM | – | > 100 µM | – | > 100 µM | – | > 100 µM | – | > 100 µM | – | > 100 µM | – | – | – | > 100 µM | > 100 µM | – |
| CCCCC#Cc1c(I)n(C2OC(CO[Si](C)(C)C(C)(C)C)C3OC(C)(C)OC32)c(=O)[nH]c1=O (stereo not given) | 2.8 µM | 16.5 µM | 20 µM | 34.7 µM | 5.45 µM | 24.8 µM | 13 µM | 31.3 µM | 0.534 µM | 1.95 µM | – | – | 1.84 µM | 4.3 µM | – | – | 11.8 µM | 24 µM | > 100 µM | 3.39 µM |
| Cc1cc(C)cc(NC(=O)CCC(=O)C2CCC/C2=N\NC(=O)C(=O)NN)c1 (stereo not given) | – | > 100 µM | – | – | – | > 100 µM | – | > 100 µM | – | – | – | > 100 µM | – | > 100 µM | – | > 100 µM | – | > 100 µM | > 100 µM | – |
| COc1cc(C=C2C(=O)OC(C)(C)OC2=O)cc(OC)c1OC | – | > 100 µM | – | – | – | > 100 µM | – | > 100 µM | – | > 100 µM | – | > 100 µM | – | > 100 µM | – | > 100 µM | – | > 100 µM | > 100 µM | – |
| COc1cc(OC)c(Oc2cccc(OC)c2OC)c(OC)c1 | – | > 100 µM | – | > 100 µM | – | – | – | > 100 µM | – | > 100 µM | – | > 100 µM | – | > 100 µM | – | > 100 µM | – | > 100 µM | > 100 µM | – |
| c1cc(C2O[C@H]3CCCN3[C@@H]2c2ccncc2)ccn1 (stereo not given in full) | – | – | – | > 100 µM | – | > 100 µM | – | > 100 µM | – | > 100 µM | – | > 100 µM | – | > 100 µM | – | > 100 µM | – | > 100 µM | > 100 µM | – |
| COc1ccc(OC)c(-c2cc(-c3ccc(Cl)cc3)nn2-c2ccc(S(N)(=O)=O)cc2)c1 | 7.51 µM | 21.6 µM | – | – | – | – | 13.4 µM | 28.3 µM | 7.99 µM | 45.3 µM | 17.6 µM | 34.3 µM | – | – | – | – | 2.98 µM | 12.1 µM | – | – |
| COc1cc2c3c(c1OC)C1(C=CC(=O)C=C1)CC3N(C(=O)OC(C)(C)C(Cl)(Cl)Cl)CC2 (stereo not given) | – | – | – | 31.9 µM | – | 27.2 µM | – | 32.4 µM | – | 23.2 µM | – | 30.4 µM | – | – | – | 96.9 µM | – | 28.4 µM | 26.1 µM | – |
| NC(=O)c1ncn(C2CCC(CP(=O)(O)O)C2)c1N (stereo not given) | – | > 100 µM | – | > 100 µM | – | > 100 µM | – | > 100 µM | – | – | – | > 100 µM | – | > 100 µM | – | > 100 µM | – | > 100 µM | > 100 µM | – |
